Source: patent publication US12285397B2, “Use of (s)-3-amino-4-(difluoromethylenyl) cyclopent-1-ene-1-carboxylic acid and related compounds, (1S,3S)-3-amino-4-(difluoromethylidene) cyclopentane-1-carboxylic acid and vigabatrin in the treatment of developmental disorders” (Ovid Therapeutics Inc., priority 2018, dated 2025)

Key:
Assay type in all cases: in vivo, mouse
Fmr1 KO1 mice [1] = experiment: Open field repetitive behavior: stereotypy count, Fmr1 KO1 mice
Excerpt: (§1) Mutant fmr1 knockout (KO) mice recapitulate the Fragile X syndrome (FXS) phenotype and represent a preclinical model for assessment of putative drug treatments. In this study three different mice models of FXS were used: Fmr1 KO1 is the original Fmr1 knockout animal that carries an insertion in exon 5. See, e.g., Bakker C E, et al., The Dutch-Belgian Fragile X Consortium, Fmr1 knockout mice: A model to study fragile X mental retardation. Cell. 1994; 78:23-33 It is a protein null, although Fmr1 mRNA is still present. It is backcrossed to the C57/B16 strain. Subsequently, these mice were bred into different background strains, such as the FVB inbred mouse strain. Fmr1 KO2 is a null allele at Fmr1 generated by deletion of the promoter and first exon of Fmr1. See, Mientjes, E J et al., The generation of a conditional Fmr1 knock out mouse model to study Fmrp function in vivo. Neurobiology of Disease (2006) 21(3): 549-555. It is both protein and mRNA null. Backcrossed to the C57/B16 strain. Genotyping was accomplished using TransnetXY Automated Genotyping (http://www.transnetyx.com/). TRANSNETYX, INC., 8110 Cordova Rd. Suite 119, Cordova, TN 38016, USA.
(§2) The mice were housed in plastic cages (35×30×12 cm), 5 in each and habituated to the animal facilities for at least a week before test. The room temperature (21±2° C.), relative humidity (55±5%), a 12-h light-dark cycle (lights on 7 a.m.-7 p.m.) and air exchange (16 times per h) were automatically controlled. The animals had free access to commercial food pellets and water. Testing was conducted during the light phase. Testing was conducted on Fmr1 knockout mice and their wild-type (WT) littermates. Ten mice per treatment group, 14 weeks of age, were used for behavioral experiments. Experiments were conducted in line with the requirements of the UK Animals (Scientific Procedures) Act, 1986.
(§3) Oral dosing was performed by using 1.5-in. curved, 20-gauge, stainless steel feeding needles with a 2.25-mm ball (Braintree Scientific, Braintree, MA). Each gavage treatment was given in 0.5% methyl cellulose (Methyl Cellulose M0512, Sigma-Aldrich, St Louis, MO) used as vehicle with or without treatment compounds. The same veterinarian, blinded to the treatment groups, performed the procedure, and documented animal reactions to oral gavage. Reactions considered to indicate stress were defined as excessive struggling during gavage or abnormal behavior after gavage (labored breathing, frozen stance, exaggerated jumping, shuddering, and hunched posture).
(§4) For experiments all mice were tested once in the same apparatus. Prior to testing, mice not in the study were placed in the apparatus for some minutes before the experiment. The apparatus was then cleaned with moist and dry tissues before testing each mouse. The aim was to create a low but constant background mouse odor for all experimental subjects. All experiments were conducted with the experimenters blind to genotype and drug treatment during all testing and data analysis. Separate investigators prepared and coded dosing solutions, allocated the mice to the study treatment groups, dosed the animals, and collected the behavioral data. Data were analyzed by one-way analysis of variance (ANOVA) followed by post-hoc comparisons where appropriate using Tukey's Multiple Comparison Test. Data are represented as the mean and standard error of the mean (SEM).
2. Open Field Repetitive Behaviors (RB) (stereotypies: anticlockwise circling and self grooming). Fmr1 KO1 mice display the autism-like phenotypes of repetitive behaviors like counter revolutions (CCW), self grooming and stereotypy that typically involves behaviors such as head bobbing.
C. […]

Fmr1 KO2 mice [2] = experiment: Open field repetitive behavior: counter revolutions (CCW), Fmr1 KO2 mice
Excerpt: as §1, §2, §3, §4
(§5) 2. Open Field Repetitive Behaviors (stereotypies: anticlockwise circling (aka counter revolutions) (CCW) and self grooming). Fmr1 KO2 mice display the autism-like phenotypes of repetitive behaviors like CCW, self grooming and stereotypy that typically involves behaviors such as head bobbing. […]

Fmr1 KO2 mice [3] = experiment: Tests of daily living (nesting), Fmr1 KO2 mice
Excerpt: as §1, §2, §3, §4
3. Tests of daily living (nesting). Species-typical behaviors offer easy ways to test for hippocampal dysfunction. The hippocampus is vital for the performance of species-typical tasks, or “activities of daily living” of mice. […]

Fmr1 KO1 mice [4] = experiment: Tests of daily living (nesting), Fmr1 KO1 mice
Excerpt: as §1, §2, §3, §4
3. Tests of daily living (Nesting): FIG. 11 is a bar graph illustrating nest building quality by wild-type mice administered 0.5% methyl cellulose vehicle, Fmr1 KO1 mice administered 0.5% methyl cellulose, Fmr1 KO1 mice administered (S)-3-amino-4-(difluoromethylenyl) cyclopent-1-ene-1-carboxylic acid 0.01 mg/kg, Fmr1 KO1 mice administered (S)-3-amino-4-(difluoromethylenyl) cyclopent-1-ene-1-carboxylic acid 0.05 mg/kg, and Fmr1 KO1 mice administered (S)-3-amino-4-(difluoromethylenyl) cyclopent-1-ene-1-carboxylic acid 0.1 mg/kg.

Fmr1 KO1 mice [5] = experiment: Open field repetitive behavior: self grooming, Fmr1 KO1 mice
Excerpt: as §1, §2, §3, §4
2. Open Field Repetitive Behaviors (RB) (stereotypies: anticlockwise circling and self grooming). Fmr1 KO1 mice display the autism-like phenotypes of repetitive behaviors like counter revolutions (CCW), self grooming and stereotypy that typically involves behaviors such as head bobbing. […]

Fmr1 KO2 mice [6] = experiment: Open field repetitive behavior: stereotypy count, Fmr1 KO2 mice
Excerpt: as §1, §2, §3, §4
2. Open Field Repetitive Behaviors (stereotypies: anticlockwise circling (aka counter revolutions) (CCW) and self grooming). Fmr1 KO2 mice display the autism-like phenotypes of repetitive behaviors like CCW, self grooming and stereotypy that typically involves behaviors such as head bobbing.
C. […]

Fmr1 KO2 mice [7] = experiment: Open field repetitive behavior: self grooming, Fmr1 KO2 mice; set-up: Effect on abnormal self grooming phenotype (FIG. 3): dose or concentration left out as unconfirmed
Excerpt: as §1, §2, §3, §4, §5

**Q.** What does the source list for `N[C@H]1C=C(C(=O)O)CC1=C(F)F` [Compound, (S)-3-Amino-4-(difluoromethylenyl)cyclopent-1-ene-1-carboxylic acid]?
**A.** Stereotypy count, WT-Veh vs. KO1-Compound: Significant? (Fmr1 KO1 mice [1]; 0.01 mg/Kg PO QD seven days): Yes; Stereotypy count, WT-Veh vs. KO1-Compound: Significant? (Fmr1 KO1 mice [1]; 0.05 mg/Kg PO QD seven days): No; Stereotypy count, WT-Veh vs. KO1-Compound: Summary (Fmr1 KO1 mice [1]; 0.05 mg/Kg PO QD seven days): ns; Stereotypy count, WT-Veh vs. KO1-Compound: Significant? (Fmr1 KO1 mice [1]; 0.1 mg/Kg PO QD seven days): No; Stereotypy count, WT-Veh vs. KO1-Compound: Summary (Fmr1 KO1 mice [1]; 0.1 mg/Kg PO QD seven days): ns; Effect on repetitive behaviors (stereotypical movements, FIG. 10) (Fmr1 KO1 mice [1]; 0.05 and 0.1 mg/Kg): decreased; Open field counter revolutions (CCW), WT-Veh vs. KO2-Compound: Significant? (Fmr1 KO2 mice [2]; 0.01 mg/Kg PO QD seven days): Yes; Open field counter revolutions (CCW), WT-Veh vs. KO2-Compound: Significant? (Fmr1 KO2 mice [2]; 0.05 mg/Kg PO QD seven days): No; Open field counter revolutions (CCW), WT-Veh vs. KO2-Compound: Summary (Fmr1 KO2 mice [2]; 0.05 mg/Kg PO QD seven days): ns; Open field counter revolutions (CCW), WT-Veh vs. KO2-Compound: Significant? (Fmr1 KO2 mice [2]; 0.1 mg/Kg PO QD seven days): No; Open field counter revolutions (CCW), WT-Veh vs. KO2-Compound: Summary (Fmr1 KO2 mice [2]; 0.1 mg/Kg PO QD seven days): ns; Effect on CCW revolutions phenotype (FIG. 2) (Fmr1 KO2 mice [2]; 0.05 and 0.1 mg/Kg): rescued; Nesting, WT-Veh vs. KO2-Compound: Significant? (Fmr1 KO2 mice [3]; 0.01 mg/Kg PO QD seven days): Yes; Nesting, WT-Veh vs. KO2-Compound: Significant? (Fmr1 KO2 mice [3]; 0.05 mg/Kg PO QD seven days): No; Nesting, WT-Veh vs. KO2-Compound: Summary (Fmr1 KO2 mice [3]; 0.05 mg/Kg PO QD seven days): ns; Nesting, WT-Veh vs. KO2-Compound: Significant? (Fmr1 KO2 mice [3]; 0.1 mg/Kg PO QD seven days): No; Nesting, WT-Veh vs. KO2-Compound: Summary (Fmr1 KO2 mice [3]; 0.1 mg/Kg PO QD seven days): ns; Effect on poorer nest building phenotype (FIG. 5) (Fmr1 KO2 mice [3]; 0.05 and 0.1 mg/Kg): rescued; Nesting, WT-Veh vs. KO1-Compound: Significant? (Fmr1 KO1 mice [4]; 0.01 mg/Kg PO QD seven days): Yes; Nesting, WT-Veh vs. KO1-Compound: Significant? (Fmr1 KO1 mice [4]; 0.05 mg/Kg PO QD seven days): No; Nesting, WT-Veh vs. KO1-Compound: Summary (Fmr1 KO1 mice [4]; 0.05 mg/Kg PO QD seven days): ns; Nesting, WT-Veh vs. KO1-Compound: Significant? (Fmr1 KO1 mice [4]; 0.1 mg/Kg PO QD seven days): No; Nesting, WT-Veh vs. KO1-Compound: Summary (Fmr1 KO1 mice [4]; 0.1 mg/Kg PO QD seven days): ns; Effect on nesting behavior (FIG. 11) (Fmr1 KO1 mice [4]; 0.05 and 0.1 mg/Kg): rescues poor nesting behavior; Self grooming (time spent grooming), WT-Veh vs. KO1-Compound: Significant? (Fmr1 KO1 mice [5]; 0.01 mg/Kg PO QD seven days): Yes; Self grooming (time spent grooming), WT-Veh vs. KO1-Compound: Significant? (Fmr1 KO1 mice [5]; 0.05 mg/Kg PO QD seven days): No; Self grooming (time spent grooming), WT-Veh vs. KO1-Compound: Summary (Fmr1 KO1 mice [5]; 0.05 mg/Kg PO QD seven days): ns; Self grooming (time spent grooming), WT-Veh vs. KO1-Compound: Significant? (Fmr1 KO1 mice [5]; 0.1 mg/Kg PO QD seven days): No; Self grooming (time spent grooming), WT-Veh vs. KO1-Compound: Summary (Fmr1 KO1 mice [5]; 0.1 mg/Kg PO QD seven days): ns; Time self-grooming compared with WT+veh (FIG. 9) (Fmr1 KO1 mice [5]; 0.05 and 0.1 mg/Kg): did not differ from WT+veh; Stereotypy count, WT-Veh vs. KO2-Compound: Significant? (Fmr1 KO2 mice [6]; 0.01 mg/Kg PO QD seven days): Yes; Stereotypy count, WT-Veh vs. KO2-Compound: Significant? (Fmr1 KO2 mice [6]; 0.05 mg/Kg PO QD seven days): No; Stereotypy count, WT-Veh vs. KO2-Compound: Summary (Fmr1 KO2 mice [6]; 0.05 mg/Kg PO QD seven days): ns; Stereotypy count, WT-Veh vs. KO2-Compound: Significant? (Fmr1 KO2 mice [6]; 0.1 mg/Kg PO QD seven days): No; Stereotypy count, WT-Veh vs. KO2-Compound: Summary (Fmr1 KO2 mice [6]; 0.1 mg/Kg PO QD seven days): ns; Effect on stereotypy counts phenotype (FIG. 4) (Fmr1 KO2 mice [6]; 0.05 and 0.1 mg/Kg): reversed; Effect on abnormal self grooming phenotype (FIG. 3) (Fmr1 KO2 mice [7]): rescued; Time spent grooming (self grooming), WT-Veh vs. KO2-Compound: Significant? (Fmr1 KO2 mice [7]; 0.01 mg/Kg PO QD seven days): Yes; Time spent grooming (self grooming), WT-Veh vs. KO2-Compound: Significant? (Fmr1 KO2 mice [7]; 0.05 mg/Kg PO QD seven days): No; Time spent grooming (self grooming), WT-Veh vs. KO2-Compound: Summary (Fmr1 KO2 mice [7]; 0.05 mg/Kg PO QD seven days): ns; Time spent grooming (self grooming), WT-Veh vs. KO2-Compound: Significant? (Fmr1 KO2 mice [7]; 0.1 mg/Kg PO QD seven days): No; Time spent grooming (self grooming), WT-Veh vs. KO2-Compound: Summary (Fmr1 KO2 mice [7]; 0.1 mg/Kg PO QD seven days): ns
